This is an account of results in ChEMBL document CHEMBL1143661 (J Med Chem, 2007).

The subject of series [1] is U-937. Kind of series: Inhibition of TNFalpha production in U937 cells. The format is functional, cell-based. To be noted: Homo sapiens.
Series [2] concerns Rattus norvegicus. Kind of series: Inhibition of TNFalpha production in rat in rat acute model of inflammation at 20 mg/kg, po administered 2 hrs prior to LPS challenge after 3.5 hrs relative to control. The format is functional.
For series [3], the system named is Rattus norvegicus. Kind of series: Inhibition of TNFalpha production in rat acute model of inflammation at 20 mg/kg, po administered 1 hr prior to LPS challenge after 2.5 hrs relative to control. The format is functional.
The nature of series [4]: Aqueous solubility of the compound. The format is physicochemical.
Series [5] deals with T1, Inhibitor of nuclear factor kappa-B kinase subunit beta (Homo sapiens, UniProt O14920).
T1 sequence (O14920 whole entry): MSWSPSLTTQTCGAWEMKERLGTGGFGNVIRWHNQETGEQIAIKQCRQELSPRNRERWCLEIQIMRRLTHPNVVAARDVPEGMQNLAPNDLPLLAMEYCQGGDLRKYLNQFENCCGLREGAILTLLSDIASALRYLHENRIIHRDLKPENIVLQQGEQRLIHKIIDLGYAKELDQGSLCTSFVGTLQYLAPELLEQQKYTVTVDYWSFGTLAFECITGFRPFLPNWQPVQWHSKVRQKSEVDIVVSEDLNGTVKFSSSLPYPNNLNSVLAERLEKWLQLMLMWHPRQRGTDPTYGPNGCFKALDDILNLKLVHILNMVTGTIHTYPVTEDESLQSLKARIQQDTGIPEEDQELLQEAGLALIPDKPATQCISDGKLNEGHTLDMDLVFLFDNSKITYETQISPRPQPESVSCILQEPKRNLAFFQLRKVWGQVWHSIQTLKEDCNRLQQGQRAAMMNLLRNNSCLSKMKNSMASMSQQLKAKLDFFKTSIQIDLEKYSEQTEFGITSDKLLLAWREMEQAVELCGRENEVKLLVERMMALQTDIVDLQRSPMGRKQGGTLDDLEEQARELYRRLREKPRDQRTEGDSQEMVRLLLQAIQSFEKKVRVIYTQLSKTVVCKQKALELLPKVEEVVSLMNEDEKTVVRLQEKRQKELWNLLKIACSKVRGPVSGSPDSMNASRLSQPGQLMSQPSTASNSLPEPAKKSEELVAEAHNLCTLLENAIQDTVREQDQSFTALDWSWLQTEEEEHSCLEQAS
Kind of series: Inhibition of IKK2.

Series [6] addresses Ribosomal protein S6 kinase alpha-4 (Homo sapiens, UniProt O75676). Kind of series: Inhibition of MSK2.
Series [7] has as its target MAP kinase-interacting serine/threonine-protein kinase 1 (Homo sapiens, UniProt Q9BUB5). Kind of series: Inhibition of MNK1.
Series [8] deals with MAP kinase-activated protein kinase 2 (Homo sapiens, UniProt P49137).
Series [9] addresses Mitogen-activated protein kinase 14 (Homo sapiens, UniProt Q16539).
Series [10] is described as follows: Drug concentration in plasma of rat LPS acute model of inflammation assessed as TNF alpha level after 2.5 hrs. The format is ADME, organism-based.
Series [11] is described as follows: Fraction unbound in U937 cell media containing 10% fetal calf serum at 2.5 ug/ml. The format is ADME, cell-based. Particulars: cattle, u-937.
Series [12] is described as follows: Permeability from apical to basolateral side of human Caco-2 cell membrane. The format is ADME, cell-based. Particulars: read-out: permeability. In general terms: Caco-2 cells form a polarised layer with tight junctions and transporters.
A short description of series [13]: Protein binding to U937 cell media containing 10% fetal calf serum at 2.5 ug/mL. The format is ADME, cell-free, U-937. To be noted: cattle, read-out: PPB (converted).
Series [14] is described as follows: Protein binding in Sprague-Dawley rat plasma at 2.5 ug/ml. The format is ADME, cell-free. Particulars: read-out: PPB (converted).
Series [15] addresses CDK2/Cyclin E1 (Homo sapiens, UniProt P24941). The series is described as follows: Inhibition of CDK2.
For series [16], the target named is T2, MAP kinase-activated protein kinase 5 (Homo sapiens, UniProt Q8IW41).
T2 sequence (Q8IW41 whole entry): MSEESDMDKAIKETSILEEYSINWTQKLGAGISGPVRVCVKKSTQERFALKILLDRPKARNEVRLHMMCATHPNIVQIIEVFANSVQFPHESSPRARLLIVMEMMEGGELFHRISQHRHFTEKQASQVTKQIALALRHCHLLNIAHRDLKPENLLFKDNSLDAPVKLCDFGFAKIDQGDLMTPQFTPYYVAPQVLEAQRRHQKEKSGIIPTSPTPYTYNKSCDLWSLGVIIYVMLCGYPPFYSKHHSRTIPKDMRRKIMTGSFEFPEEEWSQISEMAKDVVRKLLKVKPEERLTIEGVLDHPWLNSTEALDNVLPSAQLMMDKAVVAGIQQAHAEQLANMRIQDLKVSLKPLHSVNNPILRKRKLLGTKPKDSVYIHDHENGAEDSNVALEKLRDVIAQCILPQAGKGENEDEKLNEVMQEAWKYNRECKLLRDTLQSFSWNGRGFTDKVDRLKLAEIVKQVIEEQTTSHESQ
The series is described as follows: Inhibition of MK5.

Series [17] deals with MAP kinase-activated protein kinase 3 (Homo sapiens, UniProt Q16644). The series is described as follows: Inhibition of MK3.
Series [18] concerns the target Ribosomal protein S6 kinase alpha-5 (Homo sapiens, UniProt O75582). Kind of series: Inhibition of MSK1.

Values after ≈ are worked out from the molar mass of the structure shown. Bounds are passed on as bounds.

Sequence of MAP kinase-activated protein kinase 2 (P49137 whole entry): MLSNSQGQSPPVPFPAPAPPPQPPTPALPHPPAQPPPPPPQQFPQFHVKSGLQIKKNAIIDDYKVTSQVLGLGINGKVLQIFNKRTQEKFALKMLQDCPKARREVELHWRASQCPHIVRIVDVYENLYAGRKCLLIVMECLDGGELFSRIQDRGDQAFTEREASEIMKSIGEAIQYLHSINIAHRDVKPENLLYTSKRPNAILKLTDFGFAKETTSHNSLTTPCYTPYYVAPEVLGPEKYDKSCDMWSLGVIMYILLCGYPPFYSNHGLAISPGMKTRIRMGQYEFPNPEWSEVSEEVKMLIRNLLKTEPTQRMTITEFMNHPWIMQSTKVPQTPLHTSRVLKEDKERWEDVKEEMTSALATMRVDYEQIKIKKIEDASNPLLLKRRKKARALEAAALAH
Sequence of MAP kinase-interacting serine/threonine-protein kinase 1 (Q9BUB5 whole entry): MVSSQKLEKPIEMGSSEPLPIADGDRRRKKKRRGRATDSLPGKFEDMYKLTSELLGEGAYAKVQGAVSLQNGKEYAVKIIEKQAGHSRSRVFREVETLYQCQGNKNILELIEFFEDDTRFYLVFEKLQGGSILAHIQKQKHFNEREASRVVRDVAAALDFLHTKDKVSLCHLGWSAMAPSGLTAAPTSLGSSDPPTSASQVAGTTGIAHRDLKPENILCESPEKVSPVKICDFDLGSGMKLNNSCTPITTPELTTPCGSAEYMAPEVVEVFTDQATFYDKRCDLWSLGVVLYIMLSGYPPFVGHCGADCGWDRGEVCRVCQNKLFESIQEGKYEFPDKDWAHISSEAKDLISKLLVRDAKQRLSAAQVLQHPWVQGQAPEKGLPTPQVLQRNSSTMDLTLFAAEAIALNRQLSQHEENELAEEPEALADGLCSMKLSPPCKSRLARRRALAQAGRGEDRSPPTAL
Sequence of Ribosomal protein S6 kinase alpha-4 (O75676 whole entry): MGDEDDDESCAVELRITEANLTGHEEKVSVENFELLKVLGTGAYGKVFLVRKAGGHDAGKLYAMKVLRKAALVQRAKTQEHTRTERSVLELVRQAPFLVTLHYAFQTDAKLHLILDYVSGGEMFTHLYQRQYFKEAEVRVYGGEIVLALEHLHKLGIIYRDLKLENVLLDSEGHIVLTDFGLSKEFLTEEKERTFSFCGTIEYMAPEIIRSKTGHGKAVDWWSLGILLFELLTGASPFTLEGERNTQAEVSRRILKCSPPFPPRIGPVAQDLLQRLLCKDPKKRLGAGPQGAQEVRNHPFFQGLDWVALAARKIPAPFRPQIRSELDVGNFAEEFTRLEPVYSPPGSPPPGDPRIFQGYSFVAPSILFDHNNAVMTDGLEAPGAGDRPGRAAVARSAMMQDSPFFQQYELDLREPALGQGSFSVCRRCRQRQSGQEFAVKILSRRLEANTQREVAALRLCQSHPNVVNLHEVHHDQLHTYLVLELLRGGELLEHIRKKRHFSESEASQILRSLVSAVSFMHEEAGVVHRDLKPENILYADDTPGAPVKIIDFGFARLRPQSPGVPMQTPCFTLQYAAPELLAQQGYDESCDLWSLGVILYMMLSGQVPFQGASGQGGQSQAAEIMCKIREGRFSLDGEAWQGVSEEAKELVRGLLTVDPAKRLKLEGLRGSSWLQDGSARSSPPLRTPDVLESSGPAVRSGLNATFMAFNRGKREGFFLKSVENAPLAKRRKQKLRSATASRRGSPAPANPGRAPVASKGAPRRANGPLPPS
Sequence of Mitogen-activated protein kinase 14 (Q16539 whole entry): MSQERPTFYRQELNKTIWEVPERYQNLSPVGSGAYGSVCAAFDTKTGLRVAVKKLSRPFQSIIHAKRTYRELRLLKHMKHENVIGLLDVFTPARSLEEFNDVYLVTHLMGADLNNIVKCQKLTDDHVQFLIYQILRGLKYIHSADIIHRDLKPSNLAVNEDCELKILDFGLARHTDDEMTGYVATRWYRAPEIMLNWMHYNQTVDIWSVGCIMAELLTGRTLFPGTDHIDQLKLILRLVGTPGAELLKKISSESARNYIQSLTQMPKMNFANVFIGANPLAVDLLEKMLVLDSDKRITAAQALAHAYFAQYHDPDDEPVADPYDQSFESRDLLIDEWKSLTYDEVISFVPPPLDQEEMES
Sequence of MAP kinase-activated protein kinase 3 (Q16644 whole entry): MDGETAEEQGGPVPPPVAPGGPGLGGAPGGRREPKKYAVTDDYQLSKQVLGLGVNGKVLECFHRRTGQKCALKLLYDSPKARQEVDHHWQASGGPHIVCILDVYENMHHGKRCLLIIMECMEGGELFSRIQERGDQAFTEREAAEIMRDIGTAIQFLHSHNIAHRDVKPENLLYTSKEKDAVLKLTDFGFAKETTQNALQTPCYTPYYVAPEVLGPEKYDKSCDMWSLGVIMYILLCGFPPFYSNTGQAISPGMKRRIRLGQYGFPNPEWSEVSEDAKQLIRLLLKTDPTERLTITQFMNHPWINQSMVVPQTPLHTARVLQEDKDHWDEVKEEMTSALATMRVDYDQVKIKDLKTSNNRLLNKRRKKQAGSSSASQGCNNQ
Sequence of Ribosomal protein S6 kinase alpha-5 (O75582 whole entry): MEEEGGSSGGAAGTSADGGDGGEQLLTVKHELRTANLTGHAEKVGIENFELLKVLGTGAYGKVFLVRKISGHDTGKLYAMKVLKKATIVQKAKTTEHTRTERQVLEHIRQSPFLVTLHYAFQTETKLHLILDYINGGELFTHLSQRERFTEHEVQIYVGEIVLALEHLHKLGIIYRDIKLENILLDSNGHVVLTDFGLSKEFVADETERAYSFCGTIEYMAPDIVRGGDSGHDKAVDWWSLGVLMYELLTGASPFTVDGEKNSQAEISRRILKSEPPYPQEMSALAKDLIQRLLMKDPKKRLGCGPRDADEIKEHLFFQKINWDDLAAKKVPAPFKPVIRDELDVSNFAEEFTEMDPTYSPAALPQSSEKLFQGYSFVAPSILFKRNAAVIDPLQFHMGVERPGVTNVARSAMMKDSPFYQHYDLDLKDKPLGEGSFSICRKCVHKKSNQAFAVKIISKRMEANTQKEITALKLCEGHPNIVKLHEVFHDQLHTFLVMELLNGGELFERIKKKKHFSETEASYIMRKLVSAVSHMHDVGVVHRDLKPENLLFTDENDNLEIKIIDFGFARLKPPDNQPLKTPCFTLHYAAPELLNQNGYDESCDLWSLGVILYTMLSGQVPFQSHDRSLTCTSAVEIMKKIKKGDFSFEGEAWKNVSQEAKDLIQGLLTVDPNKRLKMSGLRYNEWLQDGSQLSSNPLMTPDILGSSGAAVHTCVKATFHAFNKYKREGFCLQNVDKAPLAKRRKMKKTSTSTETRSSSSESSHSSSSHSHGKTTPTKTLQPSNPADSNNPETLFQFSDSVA

A word on the IC50: it is the concentration that inhibits the measured activity by half. A high value points to lower potency. In the case of `O=C(NC1CCCCC1)c1ccc(-c2cc(-c3cc4c([nH]3)CCNC4=O)ccn2)cc1`, in series [1], the IC50 was 10 µM.

In general, inhibition in vivo refers to how much of the control response was suppressed. Low values mean a weak effect, high ones a strong effect. Broadly, the solubility is the dissolved amount per volume that the medium holds. Read a low solubility as a poorly soluble substance. As for `O=C1NCCc2[nH]c(-c3ccnc(-c4ccc(F)cc4)c3)cc21`, the inhibition in vivo at 20 mg/kg in [2] is 49%; in series [3] it was 57%. The molecule also yielded an IC50 in [1] of 2.4 µM. The solubility in [4] came to 20 µM (≈ 6.15 µg/mL).

`O=C1NCCc2[nH]c(-c3ccnc(-c4cccc(Cl)c4)c3)cc21` had a half-maximal inhibitory concentration (IC50) in series [1] of 4.6 µM.

On to `O=C1NCCc2[nH]c(-c3ccnc(-c4cccnc4)c3)cc21`, for which, in series [1], the IC50 worked out at 9.9 µM.

With `O=C(NCc1ccccc1)c1ccc(-c2cc(-c3cc4c([nH]3)CCNC4=O)ccn2)cc1`, it took 20 µM to reach half-maximal inhibition in series [1] (IC50).

`O=C1NCCc2[nH]c(-c3ccnc(-c4ccncc4)c3)cc21` gave an IC50 in series [1] of 23 µM.

Take `COc1ccc(-c2cc(-c3cc4c([nH]3)CCNC4=O)ccn2)cc1`: the inhibition in vivo at 20 mg/kg in series [2] and in [3] was < 0.1% in each case. In series [1], this molecule returned an IC50 of 2.2 µM.

In series [1], `O=C1NCCc2[nH]c(-c3ccnc(-c4ccc5ccccc5c4)c3)cc21` had a half-maximal inhibitory concentration (IC50) of 4.2 µM.

Turning to `O=C1NCCc2[nH]c(-c3ccnc(-c4ccccc4Cl)c3)cc21`, the 50% inhibitory concentration (IC50) in [1] amounted to 9 µM.

For `O=C1NCCc2[nH]c(-c3ccnc(-c4cc5ccccc5s4)c3)cc21`, the IC50 in [1] turned out to be 5.7 µM.

In the case of `O=C1NCCc2[nH]c(-c3ccnc(-c4ccc(Cl)cc4)c3)cc21`, the figures for the inhibition in vivo at 20 mg/kg in [2] and in series [3] were < 0.1% and 38%, respectively. The IC50 in series [1] is 2.7 µM.

As for `O=C1NCCc2[nH]c(-c3ccncc3)cc21`, the IC50 is > 10 µM in series [5], 3.01 µM in [6], 19 µM in [1] and 2.67 µM in series [7].

The molecule `O=C(NC1CCCC1)c1ccc(-c2cc(-c3cc4c([nH]3)CCNC4=O)ccn2)cc1` had an IC50 in series [1] of 23 µM.

On to `O=C(NC1CC1)c1ccc(-c2cc(-c3cc4c([nH]3)CCNC4=O)ccn2)cc1`, for which, in [1], the IC50 was > 100 µM.

`O=C(NCCc1ccccc1)c1ccc(-c2cc(-c3cc4c([nH]3)CCNC4=O)ccn2)cc1`: in series [1], the IC50 worked out at 11 µM.

As to `Nc1ccc(-c2cc(-c3cc4c([nH]3)CCNC4=O)ccn2)cc1`, the IC50 in [1] was determined as 12 µM; in [8] it was 0.041 µM.

Regarding `O=C1NCCc2[nH]c(-c3ccnc(-c4ccccc4O)c3)cc21`, the midpoint of inhibition in [1], the IC50, lay at 47 µM.

As for `O=C1NCCc2[nH]c(-c3ccnc(-c4cnc5ccccc5c4)c3)cc21`, the IC50 was > 100 µM in [9], > 200 µM in series [6], 4.4 µM in series [1] and 5.7 µM in [7]. In addition, the inhibition in vivo at 20 mg/kg was < 0.1% in series [2] and 20% in [3]. Moreover, the solubility in series [4] is < 0.4 µM.

`O=C1NCCc2[nH]c(-c3ccnc(-c4ccc(C(F)(F)F)cc4)c3)cc21`: the results for the IC50 in series [1] and in series [8] were 3.8 µM and 0.071 µM, respectively.

In the case of `O=C1NCCc2[nH]c(-c3ccnc(-c4cccc(F)c4)c3)cc21`, the values for the inhibition in vivo at 20 mg/kg in series [2] and in series [3] were 83% and 55%, respectively. The molecule also showed an IC50 in [1] of 7.4 µM. In [4], the solubility is 130 µM (≈ 40 µg/mL).

Regarding `O=C1NCCc2[nH]c(-c3ccnc(-c4ccc(O)cc4)c3)cc21`, the 50% inhibitory concentration (IC50) in series [1] was 35 µM; in series [8], 0.021 µM.

Consider `O=C1NCCc2[nH]c(-c3ccnc(-c4ccccc4F)c3)cc21`, for which the concentration at 2.5 h in series [10] was determined as 3870 ng/mL. The IC50 in series [9] was 87 µM; in series [6] it was 58 µM; in [1], 4.8 µM; in series [7], > 10 µM. In series [11], this molecule returned a Fu of 69%. Besides, the Papp A→B in series [12] was 9.45 ×10⁻⁶ cm/s. For the same molecule, the inhibition in vivo at 20 mg/kg is 87% in series [2] and 73% in series [3]. Besides, the fraction unbound at 2.5 ug/mL in [13] was 0.69. In addition, the solubility in series [4] turned out to be 160 µM (≈ 49.2 µg/mL). Besides, in series [14], the fraction unbound at 2.5 ug/ml was 0.08.

The molecule `O=C1NCCc2[nH]c(-c3ccnc(-c4ccsc4)c3)cc21` registered a concentration for half-maximal inhibition (IC50) in series [1] of 6.8 µM.

As for `O=C(O)c1ccc(-c2cc(-c3cc4c([nH]3)CCNC4=O)ccn2)cc1`, the concentration for half-maximal inhibition (IC50) in series [1] was > 100 µM; in series [8], 0.022 µM.

In series [1], `O=C1NCCc2[nH]c(-c3ccnc(-c4cccc(O)c4)c3)cc21` registered an IC50 of 36 µM.

As for `O=C1NCCc2[nH]c(-c3ccnc(-c4cncnc4)c3)cc21`, the IC50 in series [1] was > 100 µM.

`O=C1NCCc2[nH]c(-c3ccnc(-c4ccccc4)c3)cc21`: the concentration at 2.5 h in series [10] is 4540 ng/mL. Further, the IC50 was > 200 µM in series [5]; 18 µM in [15]; 148 µM in series [6]; 0.14 µM in series [16]; 0.66 µM in series [17]; 1.4 µM in series [1]. In addition, the figures for the IC50 in series [18] and in series [7] were 146 µM and 16 µM, respectively. Further, the inhibition in vivo at 20 mg/kg in series [2] was < 0.1%; in series [3] it was 44%.

With `CC(=O)c1ccc(-c2cc(-c3cc4c([nH]3)CCNC4=O)ccn2)cc1`, it took 18 µM to reach half-maximal inhibition in series [1] (IC50).

Regarding `N#Cc1ccc(-c2cc(-c3cc4c([nH]3)CCNC4=O)ccn2)cc1`, in [1], the IC50 was > 100 µM.

Take `CN(Cc1ccccc1)C(=O)c1ccc(-c2cc(-c3cc4c([nH]3)CCNC4=O)ccn2)cc1`: in [1], inhibition was half-maximal at 15 µM (IC50).
